Results from US10441588B2, “Methods and compositions for treating bacterial infection” (Curators of the University of Missouri, priority 2012, dated 2019).
“Also recorded” adds a separate entry of the source.

What was measured:
E. coli flagellin (fliC) = test: microbe, parasite or virus in culture; format: cell-based
E. coli STEC O157:H7 = format: in vivo, mice
P. aeruginosa [1] = test: Ciprofloxacin potency against P. aeruginosa
S. aureus biofilm = S. aureus biofilm inhibition, optical density, test/control; format: cell-based, Staphylococcus aureus; details: Staphylococcus aureus, growth of biofilm test/control by optical density
P. aeruginosa [2] = test: P. aeruginosa wound infection in DIO mice; format: in vivo
MRSA [3] = test: MRSA response to antibiotics in presence of compound; details: 50 μM CCG-211790
MRSA [4] = test: MRSA skin punch wound infection in DIO mice; format: in vivo, diet induced obesity (DIO) mice; details: 10^8 CFU MRSA; 60 μg/wound in ointment (6% silica in cod liver oil) vs ointment alone
From the text: In this example, in vivo and in vitro efficacy for wound infection (against MRSA and P. aeruginosa) was investigated. Diabetic ulcer lesion is a major complication of people with diabetes and represents a form of chronic wounds. Bacteria can form biofilm in the lesions, which is recalcitrant to treatment. Therefore, diet induced obesity (DIO) mice were used as a model of obesity and insulin resistance diabetes to test the in vivo efficacy of CCG-211790 to fight wound infections.
(§1) A skin punch wound was introduced to the DIO mice and infected with 10^8 CFU MRSA. Mice were then treated locally at the wound site with ointment containing CCG-211790 (60 μg/wound) in an ointment (6% silica in cod liver oil) or ointment alone. […] Furthermore, CCG-211790 protected mouse fibroblast cells (CCL-1) from MRSA cytoxicity in vitro (FIG. 13B).

[5] = test system: mouse fibroblast cells (CCL-1); test: MRSA cytotoxicity on mouse fibroblast cells in vitro; format: cell-based
Experimental: as §1

Acinetobacter baumannii = test: Vancomycin potency against Acinetobacter baumannii
MRSA [6] = test: MRSA growth
[7] = test system: A. baumannii (AYE) biofilm; test: A. baumannii open wound infection mouse model; format: in vivo, mice; details: topical, 6 mg/ml in PEG, 100 μl daily
Experimental: A topical formulation (6 mg/ml in Polyehylene glycol; PEG) was tested for its in vivo efficacy on the open wound infection mouse model.

[8] = test system: S. aureus clinical strain NRS234; test: S. aureus pneumonia model; format: in vivo, Balb/C mice
Experimental: S. aureus is one of the major causative agents of pneumonia. CCG-211790 was tested in a pneumonia model. Balb/C mice were intra-nasally infected with 10^7 CFU S. aureus clinical strain NRS234 and treated with either 0.15 μmol CCG-211790 or DMSO two hours after infection. The mice were then treated with CCG-211790 or DMSO (control) twice a day after the day of infection for three days. […] Mice were also infected with higher dose of bacteria at 10^9 CFU treated intraperitoneally (ip) with either 0.15 μmol CCG-211790, vancomycin, combination of CCG-21790 and vancomycin, or DMSO two hours after infection. The mice were then treated twice a day after the day of infection for three days.

[9] = test system: E. coli adhesion to human epithelial cells (Caco2); test: E. coli adhesion to Caco2 cells; format: cell-based; details: Caco-2
Experimental: FIGS. 15A and 15B show CCG-211790 (NV001) inhibited E. coli virulence. FIG. 15A is a western blot of fliC expression at different concentrations of CCG-211790 (NV001).
CCG-211790 (NV001) and a number of structural analogs inhibited the expression of the flagellin gene (fliC) (FIG. 15A) and also the bacterial adhesion to human epithelial cells (Caco2) (FIG. 15B). As summarized in Table 5, the effect of compounds on E. coli flagellin expression was also tested by incubating compounds (5 and 25 μM) with E. coli for 6 hours, flagellin expression in supernatant (IVG-00601, 607) or cell pellet (IVG-00608-006014) was examined by western and quantified.

S. aureus Newman strain = test: S. aureus lung infection model in mice; details: intranasal S. aureus Newman, 3-4×10^8 CFU per mouse
[10] = test system: S. aureus RN6390 strain biofilm; test: Biofilm formation on medical grade silicone sheet; format: cell-based
[11] = test system: S. aureus RN6390 strain biofilm; test: microbe, parasite or virus in culture; format: cell-based
[12] = test system: S. aureus virulence factor genes; test: S. aureus virulence factor gene expression, real time RT-PCR; format: cell-based; details: RN6390, 50 μM; ML, LL and S growth phase
S. aureus Newman biofilm = S. aureus Newman biofilm formation in microtiter plates; format: cell-based
Experimental: (§2) These compounds were then tested on staphylococcus biofilm formation. […] The two compounds (CCG-203592 and CCG-205363) were tested on S. aurues strain RN6390, which is reported to be more prone to biofilm formation than Newman strain.

S. aurues strain RN6390 = test: S. aureus RN6390 bacterial growth; format: cell-based; details: at 20 μM
Experimental: as §2

S. aureus = S. aureus growth inhibition, optical density, test/control; format: cell-based, Staphylococcus aureus; details: Staphylococcus aureus, growth of bacteria test/control by optical density
[13] = test system: group A streptococcus (GAS); test: Group A streptococcus infection in mice; format: in vivo; details: GAS 105-6 CFU per mouse
Experimental: FIGS. 1A & 1B show the identification of a chemical series of compounds inhibiting group A streptococcus virulence. FIG. 1A) Microarray analysis of gene expression changes in MGAS2221 treated with CCG-102487 compared to DMSO. FIG. 1B) Effect of CCG-2979 on mice survival after infection with GAS (105-6 CFU per mouse).
A number of small molecules that can inhibit SK expression without impeding bacterial growth were evaluated. Furthermore, these compounds can inhibit gene expression of a broad spectrum of streptococcal virulence factors (FIG. 1A).

COc1ccc2c(c1)-c1nc(SCC(F)(F)F)n(C)c(=O)c1C(C)(C)C2 [CCG-211790, 9-methoxy-3,5,5-trimethyl-2-((2,2,2-trifluoroethyl)thio)-5,6-dihydrobenzo[h]quinazolin-4(3H)-one]
activity at 5 µM (E. coli flagellin (fliC); Escherichia coli, 6 h, read-out: E. coli flagellin production, Relative Level vs. Control, 5 μM): 56.9% | activity at 25 µM (E. coli flagellin (fliC); Escherichia coli, 6 h, read-out: E. coli flagellin production, Relative Level vs. Control, 25 μM): 15.4% | expression of the flagellin gene (fliC) (E. coli flagellin (fliC); western blot, different concentrations): inhibited | survival (E. coli STEC O157:H7; […], 10 mg/kg ip twice a day): 55.6% | infection symptoms and survival (E. coli STEC O157:H7; mouse, in vivo): improved infection symptoms and survival | ciprofloxacin potency against P. aeruginosa (P. aeruginosa [1]): enhanced | activity at 5 µM (S. aureus biofilm; 5 μM, read-out: S. aureus Biofilm Inhibition 5 μM vs. (−) Control): 38.1% | activity at 50 µM (S. aureus biofilm; 50 μM, read-out: S. aureus Biofilm Inhibition 50 μM vs. (−) Control): 32.6% | survival (P. aeruginosa [2]; female DIO mice, 10^8 CFU, 12 mg/kg CCG-211790 oral with 10 mg/kg vancomycin ip): 100% | skin lesion size (P. aeruginosa [2]; male and female DIO mice, with vancomycin vs only vancomycin): reduced | antibiotic potency against MRSA (amoxicillin, vancomycin, clindamycin, tetracycline, erythromycin) (MRSA [3]): enhanced the antibiotic potency | skin lesion size (MRSA [4]): reduce the skin lesion size | protection of CCL-1 cells from MRSA cytoxicity [5]: protected | potency of vancomycin against Acinetobacter baumannii (Acinetobacter baumannii): enhanced the potency | effect on bacteria growth (MRSA [6]): little to no effect | A. baumannii infected wound lesion size [7]: reduced | bacterial counts in both lungs and spleens ([8]; 10^7 CFU intranasal, 0.15 μmol, twice a day for three days, vs DMSO): Significant reduction | protection of hosts (survival), monotherapy ([8]; 10^9 CFU, 0.15 μmol ip): Significant protection | survival rate, combination with vancomycin ([8]; 10^9 CFU, combination of vancomycin and CCG-211790): improved the survival rate | bacterial adhesion to human epithelial cells (Caco2) [9]: inhibited

C=CCn1c(SCC)nc2c(c1=O)C(C)(C)Cc1cc(OC)ccc1-2 [CCG-203592]
protection of mice in S. aureus lung infection model (S. aureus Newman strain): in vivo efficacy in protecting mice | biofilm formation on the surface of silicone sheet [10]: decreased biofilm formation | activity at 10 µM (S. aureus biofilm; 10 μM): 40.2% | activity at 100 µM (S. aureus biofilm; 100 μM): 23% | IC50, inhibition of S. aureus biofilm formation [11]: low μM range | IC50 ([11]; Staphylococcus aureus, read-out: IC50, inhibition of RN6390 biofilm formation): 2420 ± 140 nM | S. aureus virulence factor gene expression [12]: down regulated; also recorded: inhibited gene expression | S. aureus Newman biofilm formation (S. aureus Newman biofilm): consistent inhibition | bacteria growth (S. aurues strain RN6390): without inhibiting bacteria growth | activity at 100 µM (S. aureus): 110%

C=CCn1c(SCCCC)nc2c(c1=O)C1(CCCCC1)Cc1ccccc1-2 [CCG-2979]
protection of mice against group A streptococcal infection (survival) [13]: capable of protecting mice
